Each compound was assayed against T1, HDAC8 (Homo sapiens, UniProt Q9BY41) (assay: In vitro HDAC8 activity assay (Fluor de Lys-HDAC8)). Details: Table 1, PROTACs.
T1 sequence (Q9BY41 1-377): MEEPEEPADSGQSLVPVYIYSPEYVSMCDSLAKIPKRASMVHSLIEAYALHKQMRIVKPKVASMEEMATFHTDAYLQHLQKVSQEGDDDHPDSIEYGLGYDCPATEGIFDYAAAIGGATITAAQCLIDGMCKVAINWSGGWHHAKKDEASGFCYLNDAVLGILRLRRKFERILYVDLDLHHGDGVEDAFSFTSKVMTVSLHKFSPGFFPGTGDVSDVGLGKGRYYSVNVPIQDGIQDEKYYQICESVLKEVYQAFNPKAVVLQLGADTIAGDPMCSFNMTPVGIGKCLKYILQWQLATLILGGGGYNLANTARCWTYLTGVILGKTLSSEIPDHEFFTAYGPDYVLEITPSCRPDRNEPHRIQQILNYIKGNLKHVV
Assay type: biochemical
Parameters: made in house
Procedure: Recombinant hHDAC8 was produced by Romier et al. in Strasbourg. The HDAC8 activity assays were performed according to the commercial HDAC8 Fluorometric Drug Discovery Kit (Fluor de Lys(R)-HDAC8, BML-KI178) corresponding to the instructions of the manufacturer. As substrate a tetrapeptide connected to aminomethylcoumarin (AMC) H2N-Arg- His-Lys(Ac)-Lys(Ac)-AMC was synthesized as previously described. The enzyme was incubated for 90 min at 37 °C, with a substrate concentration of 50 µM and increasing concentrations of inhibitors. The stop-solution-containing inhibitor was added to stop the hHDAC8 activity, and Trypsin was added to release the AMC. The solution was incubated for 20 min at 37 °C to develop the assay.
(§1) Inhibition was measured at increasing concentration and IC50 was calculated by nonlinear regression with Origin 9.0G software.

IC50 | SMILES
4840 ± 1050 nM | O=C(COc1ccc(C(=O)Nc2cccc(C(=O)NO)c2)cc1)NCCCOCCOCCOCCCNc1cccc2c1C(=O)N(C1CCC(=O)NC1=O)C2=O (stereo not drawn) [CRBN_1j]
390 ± 30 nM | COc1ccc(C(=O)NO)cc1NC(=O)c1ccc(NC(=O)CCCCCCCNC(=O)CC23CC4CC(CC(C4)C2)C3)cc1 [HyT_1n]
90 ± 10 nM | COc1ccc(C(=O)NO)cc1NC(=O)c1ccc(CNC(=O)CCCCCCCNC(=O)CC23CC4CC(CC(C4)C2)C3)cc1 [HyT_1o]
720 ± 150 nM | Cc1ncsc1-c1ccc(CNC(=O)[C@@H]2C[C@@H](O)CN2C(=O)[C@@H](NC(=O)CCCCCNC(=O)COc2ccc(CNc3cc(C(=O)NO)ccc3Cl)cc2)C(C)(C)C)cc1 [VHL_1l]

Same assay, conditions: Table 2, inhibitors synthesized in this paper (S1)

IC50 | SMILES
10 ± 1 nM | COc1ccc(CNc2cc(C(=O)NO)ccc2OC)cc1 [2h]
410 ± 50 nM | O=C(COc1ccc(CNc2cc(C(=O)NO)ccc2Cl)cc1)OCc1ccccc1 [2i]

Same assay, conditions: selectivity index, HDAC6 over HDAC8

SI (HDAC6/HDAC8) | SMILES
2 | COc1ccc(C(=O)NO)cc1NC(=O)c1ccc(NC(=O)CCCCCCCNC(=O)CC23CC4CC(CC(C4)C2)C3)cc1 [HyT_1n]
4 | COc1ccc(C(=O)NO)cc1NC(=O)c1ccc(CNC(=O)CCCCCCCNC(=O)CC23CC4CC(CC(C4)C2)C3)cc1 [HyT_1o]

Each compound was assayed against HDAC1 (Homo sapiens, UniProt Q13547) (assay: In vitro HDAC inhibitory activity assay, recombinant HDAC1 (fluorogenic substrate ZMAL)). Details: 1 µM; read-out: HDAC1 % inhib. at given conc.
Assay type: biochemical
Parameters: purchased BPS Biosciences
Procedure: (§2) The in vitro testing on recombinant HDACs was performed as previously described. Recombinant human HDAC1 and −6 were purchased from BPS Biosciences. The enzyme inhibition was determined by using a reported homogenous fluorescence assay. […] Fluorescence intensity was measured at an excitation wavelength of 390 nm and an emission wavelength of 460 nm in a microtiter plate reader (BMG Polarstar).
as §1

Sequence of HDAC1 (Q13547 whole entry): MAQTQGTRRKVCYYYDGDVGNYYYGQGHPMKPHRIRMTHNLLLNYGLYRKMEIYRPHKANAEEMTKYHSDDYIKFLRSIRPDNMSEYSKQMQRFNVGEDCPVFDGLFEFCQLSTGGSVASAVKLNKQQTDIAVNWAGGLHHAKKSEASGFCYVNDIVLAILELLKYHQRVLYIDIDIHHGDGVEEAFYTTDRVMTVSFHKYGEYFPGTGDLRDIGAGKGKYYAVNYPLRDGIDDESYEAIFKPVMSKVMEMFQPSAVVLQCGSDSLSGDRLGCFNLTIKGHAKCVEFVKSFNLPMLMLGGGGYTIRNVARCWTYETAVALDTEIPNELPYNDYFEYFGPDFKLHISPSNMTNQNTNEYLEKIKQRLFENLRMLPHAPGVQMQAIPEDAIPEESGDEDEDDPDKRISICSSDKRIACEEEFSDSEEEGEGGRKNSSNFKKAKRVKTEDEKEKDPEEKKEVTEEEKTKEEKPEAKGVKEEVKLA

inhibition at 1 µM | SMILES
13.9% | O=C(COc1ccc(C(=O)Nc2cccc(C(=O)NO)c2)cc1)NCCCOCCOCCOCCCNc1cccc2c1C(=O)N(C1CCC(=O)NC1=O)C2=O (stereo not drawn) [CRBN_1j]
38.6% | COc1ccc(C(=O)NO)cc1NC(=O)c1ccc(NC(=O)CCCCCCCNC(=O)CC23CC4CC(CC(C4)C2)C3)cc1 [HyT_1n]
9.8% | COc1ccc(C(=O)NO)cc1NC(=O)c1ccc(CNC(=O)CCCCCCCNC(=O)CC23CC4CC(CC(C4)C2)C3)cc1 [HyT_1o]
6% | Cc1ncsc1-c1ccc(CNC(=O)[C@@H]2C[C@@H](O)CN2C(=O)[C@@H](NC(=O)CCCCCNC(=O)COc2ccc(CNc3cc(C(=O)NO)ccc3Cl)cc2)C(C)(C)C)cc1 [VHL_1l]

Same assay, conditions: 10 µM; read-out: HDAC1 % inhib. at given conc.

inhibition at 10 µM | SMILES
60% | O=C(COc1ccc(C(=O)Nc2cccc(C(=O)NO)c2)cc1)NCCCOCCOCCOCCCNc1cccc2c1C(=O)N(C1CCC(=O)NC1=O)C2=O (stereo not drawn) [CRBN_1j]
30% | COc1ccc(C(=O)NO)cc1NC(=O)c1ccc(NC(=O)CCCCCCCNC(=O)CC23CC4CC(CC(C4)C2)C3)cc1 [HyT_1n]
52.6% | COc1ccc(C(=O)NO)cc1NC(=O)c1ccc(CNC(=O)CCCCCCCNC(=O)CC23CC4CC(CC(C4)C2)C3)cc1 [HyT_1o]
45.5% | Cc1ncsc1-c1ccc(CNC(=O)[C@@H]2C[C@@H](O)CN2C(=O)[C@@H](NC(=O)CCCCCNC(=O)COc2ccc(CNc3cc(C(=O)NO)ccc3Cl)cc2)C(C)(C)C)cc1 [VHL_1l]

Same assay, conditions: Table 2, inhibitors synthesized in this paper (S1); read-out: HDAC1 IC50

IC50 | SMILES
> 20000 nM | COc1ccc(CNc2cc(C(=O)NO)ccc2OC)cc1 [2h]
> 20000 nM | O=C(COc1ccc(CNc2cc(C(=O)NO)ccc2Cl)cc1)OCc1ccccc1 [2i]

What follows are compounds tested against T2, HDAC6 (Homo sapiens, UniProt Q9UBN7) (assay: In vitro HDAC inhibitory activity assay, recombinant HDAC6 (fluorogenic substrate ZMAL)). Details: 1 µM; read-out: HDAC6 % inhib. at given conc.
T2 sequence (Q9UBN7 1-1215): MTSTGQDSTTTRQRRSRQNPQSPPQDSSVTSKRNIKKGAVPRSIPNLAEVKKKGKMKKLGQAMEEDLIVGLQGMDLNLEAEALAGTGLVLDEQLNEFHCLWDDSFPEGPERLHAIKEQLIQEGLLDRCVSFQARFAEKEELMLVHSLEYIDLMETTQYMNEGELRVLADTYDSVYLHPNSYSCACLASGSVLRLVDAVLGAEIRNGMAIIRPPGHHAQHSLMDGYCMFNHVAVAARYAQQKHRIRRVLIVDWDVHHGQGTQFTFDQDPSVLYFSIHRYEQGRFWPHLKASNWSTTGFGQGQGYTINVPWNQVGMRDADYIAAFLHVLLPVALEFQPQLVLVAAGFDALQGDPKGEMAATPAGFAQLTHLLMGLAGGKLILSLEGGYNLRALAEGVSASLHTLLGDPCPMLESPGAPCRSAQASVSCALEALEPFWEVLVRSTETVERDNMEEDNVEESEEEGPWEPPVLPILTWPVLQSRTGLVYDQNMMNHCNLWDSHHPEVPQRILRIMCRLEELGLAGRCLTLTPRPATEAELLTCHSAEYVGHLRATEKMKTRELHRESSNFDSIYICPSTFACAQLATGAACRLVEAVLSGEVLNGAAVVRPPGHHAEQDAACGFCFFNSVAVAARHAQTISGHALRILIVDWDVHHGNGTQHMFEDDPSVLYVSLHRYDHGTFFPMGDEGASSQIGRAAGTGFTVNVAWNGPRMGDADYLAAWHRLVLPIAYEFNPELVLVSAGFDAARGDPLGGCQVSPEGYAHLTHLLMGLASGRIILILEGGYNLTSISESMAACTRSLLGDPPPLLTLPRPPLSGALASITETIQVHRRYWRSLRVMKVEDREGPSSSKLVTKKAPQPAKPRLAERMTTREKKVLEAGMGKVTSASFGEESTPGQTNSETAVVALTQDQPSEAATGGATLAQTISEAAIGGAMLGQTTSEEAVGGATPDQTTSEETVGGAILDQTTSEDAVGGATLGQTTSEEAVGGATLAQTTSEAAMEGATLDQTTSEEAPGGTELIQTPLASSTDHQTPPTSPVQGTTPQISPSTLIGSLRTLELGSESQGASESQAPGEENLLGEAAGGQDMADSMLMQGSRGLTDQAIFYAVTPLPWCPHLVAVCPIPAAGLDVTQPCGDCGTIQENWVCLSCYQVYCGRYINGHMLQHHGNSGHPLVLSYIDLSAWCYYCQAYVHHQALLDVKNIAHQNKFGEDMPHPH
Assay type: biochemical
Parameters: purchased BPS Biosciences
Procedure: as §2, §1

inhibition at 1 µM | SMILES
46.2% | O=C(COc1ccc(C(=O)Nc2cccc(C(=O)NO)c2)cc1)NCCCOCCOCCOCCCNc1cccc2c1C(=O)N(C1CCC(=O)NC1=O)C2=O (stereo not drawn) [CRBN_1j]
8.3% | Cc1ncsc1-c1ccc(CNC(=O)[C@@H]2C[C@@H](O)CN2C(=O)[C@@H](NC(=O)CCCCCNC(=O)COc2ccc(CNc3cc(C(=O)NO)ccc3Cl)cc2)C(C)(C)C)cc1 [VHL_1l]

Same assay, conditions: 10 µM; read-out: HDAC6 % inhib. at given conc.

inhibition at 10 µM | SMILES
80.9% | O=C(COc1ccc(C(=O)Nc2cccc(C(=O)NO)c2)cc1)NCCCOCCOCCOCCCNc1cccc2c1C(=O)N(C1CCC(=O)NC1=O)C2=O (stereo not drawn) [CRBN_1j]
72.4% | Cc1ncsc1-c1ccc(CNC(=O)[C@@H]2C[C@@H](O)CN2C(=O)[C@@H](NC(=O)CCCCCNC(=O)COc2ccc(CNc3cc(C(=O)NO)ccc3Cl)cc2)C(C)(C)C)cc1 [VHL_1l]

Same assay, conditions: Table 1, PROTACs; read-out: HDAC6 IC50

IC50 | SMILES
820 ± 50 nM | COc1ccc(C(=O)NO)cc1NC(=O)c1ccc(NC(=O)CCCCCCCNC(=O)CC23CC4CC(CC(C4)C2)C3)cc1 [HyT_1n]
370 ± 30 nM | COc1ccc(C(=O)NO)cc1NC(=O)c1ccc(CNC(=O)CCCCCCCNC(=O)CC23CC4CC(CC(C4)C2)C3)cc1 [HyT_1o]

Same assay, conditions: Table 2, inhibitors synthesized in this paper (S1); read-out: HDAC6 IC50

IC50 | SMILES
150 ± 1 nM | COc1ccc(CNc2cc(C(=O)NO)ccc2OC)cc1 [2h]
7400 ± 600 nM | O=C(COc1ccc(CNc2cc(C(=O)NO)ccc2Cl)cc1)OCc1ccccc1 [2i]

What follows are compounds tested against T1, HDAC8 (assay: HDAC8 degradation in SK-N-BE(2)-C neuroblastoma cells (Western blot)). Details: 24 h; cycloheximide 35 nM, PROTAC 10 μM.
Assay type: cell-based
Parameters: endogenous in cells; host or cells: SK-N-BE(2)-C
Procedure: Whole cell lysates from treated SK-N-BE(2)-C neuroblastoma cells were taken and the protein levels for HDAC8 and the acetylation of its substrate SMC3 were determined (Figure 6). As a control for HDAC6, we also assessed acetylation levels of α-tubulin. […] Western blot analysis was performed as described previously (Kolbinger et al.).
Figure 6 (A) SK-N-BE(2)-C neuroblastoma cells were treated for indicated time points with 10 µM of PROTACs. Degradation of HDAC8 and acetylation of HDAC8 target was analyzed via Western blot. (B) SK-N-BE(2)-C neuroblastoma cells were treated for 6 h with indicated concentrations of HyT_1p, CRBN_1b and HyT_1m. Acetylation of HDAC8 target SMC3 and HDAC6 target tubulin, as well as total HDAC8 levels, were assessed by Western blot. Quantified ac-SMC3 or ac-tubulin expression, respectively, was normalized to the respective tubulin loading control and to the solvent control (DMSO). This quantification is reflected by the numbers below each blot. […] Total HDAC6, total HDAC1, total HDAC8, and acetyl-histone H4 expression levels, were assessed by Western blot. Total GAPDH protein levels served as a loading control (LC). * unspecific bands obtained through reprobing of the membrane.

SMILES | HDAC8 degradation with de novo protein synthesis inhibited
C[C@@H]1C[C@@H]([C@H](O)CC2CC(=O)NC(=O)C2)C(=O)[C@@H](C)C1 [cycloheximide, reference compound] | no effect
